In brackets after ≈: the same amount, converted by molar mass. Like-named read-outs stand apart in the source and are kept apart here.
Legend:
Format in all cases: cell-based
[1] = system: Enterococcus faecium 752 (VRE, Van A); assay: MIC by broth microdilution, EFcm 752; settings: Enterococcus faecium, VRE, read-out: MIC E FCM 752, Enterococcus faecium 752 (VRE, Van A)
Summary of the method: (§1)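 Clinical isolates, either susceptible or resistant to natural glycopeptides, were tested by broth microdilution in Mueller-Hinton medium as NCCLS recommends.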

[2] = system: Enterococcus faecalis 848 (VRE, Van A); assay: MIC by broth microdilution, EFc 848; settings: Enterococcus faecalis, VRE, read-out: MIC E FC 848, Enterococcus faecalis 848 (VRE, Van A)
Summary of the method: as §1

[3] = system: Staphylococcus aureus 100 (ATCC 29213); assay: MIC by broth microdilution, SA 100; settings: Staphylococcus aureus, ATCC29213, read-out: MIC SA 100
Summary of the method: as §1

[4] = system: Enterococcus faecalis 101 (ATCC 29212); assay: MIC by broth microdilution, EFc 101; settings: for MIC: Enterococcus faecalis, ATCC29212, read-out: MIC E FC 101, Enterococcus faecalis 101 (ATCC 29212)
Summary of the method: as §1

[5] = system: Staphylococcus epidermidis 831 (MRSE); assay: MIC by broth microdilution, SE 831; settings: Staphylococcus epidermidis, MRSE, read-out: MIC SE 831
Summary of the method: as §1

[6] = system: Staphylococcus aureus 757 (MRSA); assay: MIC by broth microdilution, SA 757; settings: Staphylococcus aureus, MRSA, read-out: MIC SA 757
Summary of the method: as §1

[7] = system: Staphylococcus aureus 2012 (VISA); assay: MIC by broth microdilution, SA 2012; settings: for MIC: Staphylococcus aureus, VISA, read-out: MIC SA 2012, Staphylococcus aureus 2012 (VISA)
Summary of the method: as §1

[8] = system: Staphylococcus epidermidis 835; assay: MIC by broth microdilution, SE 835; settings: Staphylococcus epidermidis, 835, read-out: MIC SE 835
Summary of the method: as §1

[9] = system: Streptococcus pyogenes 712; assay: MIC by broth microdilution, SPY 712; settings: Streptococcus pyogenes, 712, read-out: MIC S PYO 712
Summary of the method: as §1

Enterococcus faecium 800 = assay: MIC by broth microdilution, EFcm 800; settings: Enterococcus faecium, 800, read-out: MIC E FCM 800
Summary of the method: as §1

[10] = system: Streptococcus pneumoniae 1195 (ATCC 49619); assay: MIC by broth microdilution, SPNE 1195; settings: Streptococcus pneumoniae, ATCC49619, read-out: MIC S PNE 1195
Summary of the method: as §1

| Structure (SMILES) | MIC ([1]; class symbols) [µg/mL] | MIC ([2]; class symbols) [µg/mL] | MIC [3] [µg/mL] | MIC ([4]; class symbols) [µg/mL] | MIC [5] [µg/mL] | MIC [6] [µg/mL] | MIC ([7]; class symbols) [µg/mL] | MIC [8] [µg/mL] | MIC [9] [µg/mL] | MIC (Enterococcus faecium 800) [µg/mL] | MIC [10] [µg/mL] | MIC ([1]; numeric, comparison) [µg/mL] | MIC ([2]; numeric, comparison) [µg/mL] | MIC E FC 101 ([4]; Enterococcus faecalis 101 (ATCC 29212), numeric, comparison) [µg/mL] | MIC ([4]; numeric, comparison) [µg/mL] | MIC SA 2012 ([7]; Staphylococcus aureus 2012 (VISA), numeric, comparison) [µg/mL] | MIC ([7]; numeric, comparison) [µg/mL] |
| --- | --- | --- | --- | --- | --- | --- | --- | --- | --- | --- | --- | --- | --- | --- | --- | --- | --- |
| CCCCCOCCNC(=O)Oc1cc(O)c2c(c1)[C@@H](C(=O)NC1C3CC4CC(C3)CC1C4)NC(=O)[C@H]1NC(=O)[C@H](NC(=O)[C@@H]3NC(=O)[C@H](CC(N)=O)NC(=O)[C@H](NC(=O)[C@@H](CC(C)C)NC)[C@H](O)c4ccc(c(Cl)c4)Oc4cc3cc(c4O[C@@H]3O[C@H](CO)[C@@H](O)[C@H](O)[C@H]3O[C@H]3C[C@](C)(N)[C@H](O)[C@H](C)O3)Oc3ccc(cc3Cl)[C@H]1O)c1ccc(O)c-2c1 (stereo partly drawn) [Compound 340] | 2 to 4 (≈ 1.15 to 2.3 µM) | 8 to 16 (≈ 4.6 to 9.2 µM) | 0.01 to 0.5 (≈ 0.00575 to 0.287 µM) | 0.01 to 0.5 (≈ 0.00575 to 0.287 µM) | 0.01 to 0.5 (≈ 0.00575 to 0.287 µM) | 0.01 to 0.5 (≈ 0.00575 to 0.287 µM) | 0.5 to 1 (≈ 0.287 to 0.575 µM) | 0.01 to 0.5 (≈ 0.00575 to 0.287 µM) | 0.01 to 0.5 (≈ 0.00575 to 0.287 µM) | 0.01 to 0.5 (≈ 0.00575 to 0.287 µM) | 0.01 to 0.5 (≈ 0.00575 to 0.287 µM) | – | – | – | – | – | – |
| CN[C@H](CC(C)C)C(=O)N[C@H]1C(=O)N[C@@H](CC(N)=O)C(=O)N[C@H]2C(=O)N[C@H]3C(=O)N[C@H](C(=O)N[C@H](C(=O)O)c4cc(O)cc(O)c4-c4cc3ccc4O)[C@H](O)c3ccc(c(Cl)c3)Oc3cc2cc(c3O[C@@H]2O[C@H](CO)[C@@H](O)[C@H](O)[C@H]2O[C@H]2C[C@](C)(N)[C@H](O)[C@H](C)O2)Oc2ccc(cc2Cl)[C@H]1O [Vancomycin, vancomycin, reference compound] | – | – | 1 (≈ 0.69 µM) | – | 2 (≈ 1.38 µM) | 1 (≈ 0.69 µM) | – | 2 (≈ 1.38 µM) | 0.5 (≈ 0.345 µM) | 1 (≈ 0.69 µM) | 0.25 (≈ 0.173 µM) | > 64 | > 64 | 4 (≈ 2.76 µM) | 2 (≈ 1.38 µM) | 8 (≈ 5.52 µM) | 16 (≈ 11 µM) |

— patent US20110015119A1, “NOVEL SEMI-SYNTHETIC GLYCOPEPTIDES AS ANTIBACTERIAL AGENTS” (LEAD THERAPEUTICS, INC., priority 2009, published 2011)
